Results on two molecules are retold here after patent publication US20020169154A1, “Novel methods and compositions involving trk tyrosine kinase inhibitors and antineoplastic agents” (Cephalon, Inc., priority 2001, published 2002).

The subject of this test is human pancreatic ductal adenocarcinoma (PDAC) xenografts (Colo-357). As to the kind of experiment: Survival of nude mice with orthotopically implanted human PDAC xenografts. Type of test: in vivo. The following applies: orthotopic PDAC, female nu/nu mice, (I-a-ii) 10 mg/kg/dose s.c. BID five days a week, gemcitabine 100 mg/kg/dose i.p. twice per week, combination: both regimens; for mean survival time (days of dosing to death): vehicle 58, untreated 55 days. Here is the method:
The compound of formula (I-a-ii) was formulated at 3.44 mg/mil in a vehicle of 40% polyethylene glycol (PEG) 1000 (Spectrum, Los Angeles, Calif.), 10% povidone C30 (ISP, Boudbrook, N.J.), and 2% benzyl alcohol (Specturm, Los Angeles, Calif.) in sterile injectable water.
Gemcitabine HCl (Gemzar) was obtained from Eli Lilly and Co. (Indianapolis, Ind.) as a sterile, lyophilized powder formulated with mannitol and sodium acetate, and resuspended to a concentration of 1.0 mg/ml with 0.9% sodium chloride, pH 7.0. Solutions of gemcitabine were freshly prepared for each day of dosing and filter sterilized prior to administration.
Human pancreatic ductal adenocarcinoma (PDAC) xenografts were obtained from the left flanks of nude mice that had been injected with 2×10^6 Colo-357 human pancreatic carcinoma cells. Colo-357 human PDAC cells were obtained from the American Type Culture Collection (ATCC) and grown to subconfluency in Minimal Essential Medium supplemented with 10% fetal bovine serum and 1% penicillin/streptomycin. Cells were MAP and mycoplasma tested by a commercial laboratory (Bio Reliance Corp.) prior to use. Xenograft tumors were harvested and carefully sectioned into 2×2 mm^2 fragments in a laminar flow hood using sterile technique (PNAS 89:5645-49, 1992; Cancer Res. 55:4670-75, 1995). Netrotic areas of the tumors were removed and discarded. The 2×2 mm tumor tissue fragments were then placed in sterile, undiluted Matrigel and ice for 60 minutes prior to implantation. (Cancer Res. 55:4670-75, 1995).
At approximately 8 weeks of age female nu/nu mice were anesthetized with a mixture of ketamine/xylazine given by IM injection. Following establishment of satisfactory anesthesia, a left lateral laparotomy was performed using aseptic technique, and the spleen and pancreas exteriorized by gentle traction. Two of the 2×2 mm^2 tumor xenograft fragments prepared as described above were anchored to the posterior surface of the splenic portion of the pancreas of each mouse with a 6-0 Prolene suture (Cancer Res. 56:5713-19, 1996; J. Surg. Oncol. 40:261-265, 1989). The abdominal incision was closed with 6-0 Vicryl and the skin closed with skin staples. Mice were observed daily for any signs of infection of the incision line and, following removal of the skin staples, had abdominal palpation performed twice weekly. Establishment of the orthotopic phenotype with diffuse peritoneal spread was accomplished through three serial passes of tumor tissue.
Seven days following surgical implantation of serially passed PDAC tumor tissue, mice were randomized into five different treatment groups. Untreated mice (n=5) received no vehicle or drug treatments. […]
In general terms: Xenograft models place foreign cells or tissue in a host animal.

As for `C[C@@]12OC(C[C@@]1(O)CO)n1c3ccccc3c3c4c(c5c6ccccc6n2c5c31)CNC4=O` [formula (I-a-ii)], the “survival relative to controls or monotherapy (Kaplan-Meier-Wilcoxon), in words” value is listed as “trend toward improved overall survival relative to administration of controls, but the trend was not significant” and the “mean survival time (days of dosing to death)” value is recorded as 63 days.

Take `Nc1ccn([C@@H]2O[C@H](CO)[C@@H](O)C2(F)F)c(=O)n1` [gemcitabine, 2′,2′-difluorodeoxycytidine]: the “survival relative to controls or monotherapy (Kaplan-Meier-Wilcoxon), in words” value is “prolonged survival relative to the administration of controls” and the “mean survival time (days of dosing to death)” value worked out at 97 days.
